The values that follow are results of earlier work, collected in patent US7947297B2, “Mixtures of phenolic and inorganic materials with antimicrobial activity” (BASF SE, priority 2000, dated 2011).

The conditions of the data set: polypropylene samples, Xenon Arc Weather-Ometer at 035 W/m^2, 63° C.

Molecules are shown by their SMILES.

On to `Oc1cc(Cl)ccc1Oc1ccc(Cl)cc1Cl` [Irgaguard ® B1000, 2,4,4′-trichloro-2′-hydroxydiphenyl ether], for which the discoloration upon weathering result is listed as “discolor within hours”.
